Legend:
seeds of A12 = assay: Sensitivity to low temperatures during germination on paper, pretreatment in GA3 solution; assay type: in vivo, Brassica oleracea; settings: pretreatment 10 d 10 C. in the light in 1 mM GA3, then non-germinated seeds 5 days at 20° C. in the light
Procedure: (§1) Two replicates of 50 seeds per treatment were incubated at 5° C. or 10° C. in the light as described before for a germination test on paper. Incubation was in water or in a 1 mM solution of GA3. After 10 days seeds that had germinated were removed. The boxes with the remaining non-germinated seeds were then placed at 20° C. in the light. After a further 5 days the number of germinated seeds was counted. As a comparison seeds of both A12 and SL101 were germinated at 20° C. in the light without a pretreatment. Germination percentage of these seeds was counted after 10 days.

seeds of SL101 = assay: as above; assay type: in vivo, Brassica oleracea
Procedure: as §1

Measured: Percentage of germination of seeds

C=C1C[C@]23C[C@@]1(O)CC[C@H]2[C@@]12C=C[C@H](O)[C@@](C)(C(=O)O1)[C@H]2[C@@H]3C(=O)O [GA3]
100%: seeds of A12 | seeds of SL101; pretreatment 10 d 5 C. in the light in 1 mM GA3, then non-germinated seeds 5 days at 20° C. in the light | seeds of SL101; pretreatment 10 d 10 C. in the light in 1 mM GA3, then non-germinated seeds 5 days at 20° C. in the light

Reference: patent US11479784B2, “Modulation of seed vigor” (Syngenta Participations AG, priority 2012, dated 2022)
